Converted amounts (≈) assume the structure as drawn.
Tests used:
[1] = system: Staphylococcus saccharolyticus; test: Antibacterial activity against Staphylococcus saccharolyticus GAI 5520 by broth microdilution method; assay type: functional
[2] = system: Streptococcus intermedius; test: Antibacterial activity against Streptococcus intermedius GAI 7416 by broth microdilution method; assay type: functional
Atopobium parvulum = test: Antibacterial activity against Atopobium parvulum GAI 5542 by broth microdilution method; assay type: functional; details: Lancefieldella parvula
[3] = system: Peptoniphilus asaccharolyticus; test: Antibacterial activity against Peptostreptococcus asaccharolyticus GAI 5534 by broth microdilution method; assay type: functional
[4] = system: Peptostreptococcus anaerobius; test: Antibacterial activity against Peptostreptococcus anaerobius GAI 5506 by broth microdilution method; assay type: functional
Finegoldia magna = test: Antibacterial activity against Peptostreptococcus magnus GAI 5528 by broth microdilution method; assay type: functional
Clostridium perfringens = test: Antibacterial activity against Clostridium perfringens GAI 5526 by broth microdilution method; assay type: functional
Cutibacterium acnes = test: Antibacterial activity against Propionibacterium acnes GAI 5568 by broth microdilution method; assay type: functional
[5] = system: Propionibacterium granulosum; test: Antibacterial activity against Propionibacterium granulosum GAI 7414 by broth microdilution method; assay type: functional; details: Cutibacterium granulosum
[6] = system: Staphylococcus epidermidis; test: Antibacterial activity against Staphylococcus epidermidis ATCC 12228 by broth microdilution method; assay type: functional
Streptococcus pneumoniae [7] = test: Antibacterial activity against penicillin-resistant Streptococcus pneumoniae KT2524 in mouse dosed iv 1 hr after infection; assay type: functional
Staphylococcus aureus [8] = test: Antibacterial activity against methicillin-susceptible Staphylococcus aureus Smith in mouse dosed twice iv 1 hr and 4 hrs after infection; assay type: functional
Staphylococcus aureus [9] = test: Antibacterial activity against methicillin-resistant Staphylococcus aureus KT0116 in mouse dosed twice iv 1 hr and 4 hrs after infection; assay type: functional
Streptococcus pneumoniae [10] = test: Antibacterial activity against penicillin-susceptible Streptococcus pneumoniae ATCC 49619 in mouse dosed twice iv 1 hr and 4 hrs after infection; assay type: functional; details: ATCC 49619, iv
Streptococcus pneumoniae [11] = test: Antibacterial activity against penicillin-resistant Streptococcus pneumoniae KT2524 in mouse dosed twice iv 1 hr and 4 hrs after infection; assay type: functional
Staphylococcus aureus [12] = test: Antibacterial activity against methicillin-susceptible Staphylococcus aureus Smith in po dosed mouse twice daily; assay type: functional
Streptococcus pneumoniae [13] = test: Antibacterial activity against penicillin-susceptible Streptococcus pneumoniae ATCC 6303 in mouse pulmonary infection model assessed as survival at 6.25 mg/kg, ip twice daily for 3 days; assay type: functional; details: route intraperitoneal
[14] = Solubility in water; assay type: physicochemical
Streptococcus pyogenes = test: Antibacterial activity against Streptococcus pyogenes ATCC 12344 by broth microdilution method; assay type: functional
Enterococcus faecium [15] = test: Antibacterial activity against vancomycin-resistant Enterococcus faecium KU1778 clinical isolate by broth microdilution method; assay type: functional
Moraxella catarrhalis = test: Antibacterial activity against Moraxella catarrhalis K1209 by broth microdilution method; assay type: functional
Haemophilus influenzae = test: Antibacterial activity against Haemophilus influenzae TH13 by broth microdilution method; assay type: functional
[16] = system: Mycoplasmoides pneumoniae; test: Antibacterial activity against Mycoplasma pneumoniae FH Liu by broth microdilution method; assay type: functional
[17] = system: Mycoplasmoides pneumoniae; test: Antibacterial activity against Mycoplasma pneumoniae Mac by broth microdilution method; assay type: functional
Staphylococcus aureus [18] = test: Antibacterial activity against methicillin-susceptible Staphylococcus aureus Smith in mouse dosed iv 1 hr after infection; assay type: functional
Staphylococcus aureus [19] = test: Antibacterial activity against methicillin-resistant Staphylococcus aureus KT0116 in mouse dosed iv 1 hr after infection; assay type: functional
Streptococcus pneumoniae [20] = test: Antibacterial activity against penicillin-susceptible Streptococcus pneumoniae ATCC 49619 in mouse dosed iv 1 hr after infection; assay type: functional; details: ATCC 49619, iv
Staphylococcus aureus [21] = test: microbe, parasite or virus in culture
Staphylococcus aureus [22] = test: microbe, parasite or virus in culture; details: Smith
Staphylococcus aureus [23] = test: microbe, parasite or virus in culture; remark: listed apart in the source
Staphylococcus aureus [24] = test: microbe, parasite or virus in culture; details: KMP9
Streptococcus pneumoniae [25] = test: microbe, parasite or virus in culture; details: ATCC 49619
Streptococcus pneumoniae [26] = test: microbe, parasite or virus in culture
Enterococcus faecalis = test: microbe, parasite or virus in culture; details: ATCC 29212
Enterococcus faecium [27] = test: microbe, parasite or virus in culture; details: ATCC 19434

CC1(C)S[C@@H]2[C@H](NC(=O)[C@H](N)c3ccccc3)C(=O)N2[C@H]1C(=O)O [AMPICILLIN]
MIC [1]: 0.008 µg/mL (≈ 0.0229 µM)
MIC [2]: 0.125 µg/mL (≈ 0.358 µM)
MIC (Atopobium parvulum): 0.125 µg/mL (≈ 0.358 µM)
MIC [3]: 0.25 µg/mL (≈ 0.715 µM)
MIC [4]: 0.125 µg/mL (≈ 0.358 µM)
MIC (Finegoldia magna): 0.25 µg/mL (≈ 0.715 µM)
MIC (Clostridium perfringens): 0.063 µg/mL (≈ 0.18 µM)
MIC (Cutibacterium acnes): 0.125 µg/mL (≈ 0.358 µM)
MIC [5]: 0.063 µg/mL (≈ 0.18 µM)

C=C[C@]1(C)C[C@@H](OC(=O)CSC2CCN(C(=O)CCn3cnc4c(N5CCNCC5)nc(N)nc43)CC2)[C@@]2(C)C3C(=O)CC[C@@]3(CC[C@H]2C)[C@@H](C)[C@@H]1O (stereo partly drawn)
MIC [6]: 0.063 µg/mL (≈ 0.0839 µM)
ED50 (Streptococcus pneumoniae [7]): 1.55 mg/kg
ED50 (Staphylococcus aureus [8]): 1.51 mg/kg
ED50 (Staphylococcus aureus [9]): 0.91 mg/kg
ED50 (Streptococcus pneumoniae [10]): 1.34 mg/kg
ED50 (Streptococcus pneumoniae [11]): 1.88 mg/kg
ED50 (Staphylococcus aureus [12]): > 50 mg/kg
Activity (Streptococcus pneumoniae [13]): 50%
solubility [14]: 50 mg/mL (≈ 66600 µM)
MIC (Streptococcus pyogenes): 0.032 µg/mL (≈ 0.0426 µM)
MIC (Enterococcus faecium [15]): 0.063 µg/mL (≈ 0.0839 µM)
MIC (Moraxella catarrhalis): 0.032 µg/mL (≈ 0.0426 µM)
MIC (Haemophilus influenzae): 0.125 µg/mL (≈ 0.166 µM)
MIC [1]: 0.06 µg/mL (≈ 0.0799 µM)
MIC [2]: 0.25 µg/mL (≈ 0.333 µM)
MIC (Atopobium parvulum): 0.25 µg/mL (≈ 0.333 µM)
MIC [3]: 0.032 µg/mL (≈ 0.0426 µM)
MIC [4]: 0.032 µg/mL (≈ 0.0426 µM)
MIC (Finegoldia magna): 0.063 µg/mL (≈ 0.0839 µM)
MIC (Clostridium perfringens): 0.063 µg/mL (≈ 0.0839 µM)
MIC (Cutibacterium acnes): 0.008 µg/mL (≈ 0.0107 µM)
MIC [5]: 0.016 µg/mL (≈ 0.0213 µM)
MIC [16]: 0.008 µg/mL (≈ 0.0107 µM)
MIC [17]: 0.008 µg/mL (≈ 0.0107 µM)
ED50 (Staphylococcus aureus [18]): 1.86 mg/kg
ED50 (Staphylococcus aureus [19]): 2.15 mg/kg
ED50 (Streptococcus pneumoniae [20]): 1.54 mg/kg
MIC (Staphylococcus aureus [21]): 0.063 µg/mL (≈ 0.0839 µM)
MIC (Staphylococcus aureus [22]): 0.25 µg/mL (≈ 0.333 µM)
MIC (Staphylococcus aureus [23]): 0.5 µg/mL (≈ 0.666 µM)
MIC (Staphylococcus aureus [24]): 0.5 µg/mL (≈ 0.666 µM)
MIC (Streptococcus pneumoniae [25]): 0.063 µg/mL (≈ 0.0839 µM)
MIC (Streptococcus pneumoniae [26]): 0.063 µg/mL (≈ 0.0839 µM)
MIC (Enterococcus faecalis): 64 µg/mL (≈ 85.2 µM)
MIC (Enterococcus faecium [27]): 0.063 µg/mL (≈ 0.0839 µM)

CO/N=C(\C(=O)N[C@@H]1C(=O)N2C(C(=O)O)=C(CSc3nc(=O)c(O)nn3C)CS[C@H]12)c1csc(N)n1 [CEFTRIAXONE]
MIC [6]: 2 µg/mL (≈ 3.61 µM)
ED50 (Streptococcus pneumoniae [7]): 27.5 mg/kg
MIC (Streptococcus pyogenes): 0.016 µg/mL (≈ 0.0289 µM)
MIC (Enterococcus faecium [15]): > 128 µg/mL
MIC (Moraxella catarrhalis): 0.25 µg/mL (≈ 0.451 µM)
MIC (Haemophilus influenzae): 0.008 µg/mL (≈ 0.0144 µM)
ED50 (Staphylococcus aureus [18]): 3.72 mg/kg
ED50 (Staphylococcus aureus [19]): > 100 mg/kg
ED50 (Streptococcus pneumoniae [20]): 0.22 mg/kg
MIC (Staphylococcus aureus [21]): 2 µg/mL (≈ 3.61 µM)
MIC (Staphylococcus aureus [22]): 2 µg/mL (≈ 3.61 µM)
MIC (Staphylococcus aureus [23]): > 128 µg/mL
MIC (Staphylococcus aureus [24]): > 128 µg/mL
MIC (Streptococcus pneumoniae [25]): 0.063 µg/mL (≈ 0.114 µM)
MIC (Streptococcus pneumoniae [26]): 0.5 µg/mL (≈ 0.902 µM)
MIC (Enterococcus faecalis): 4 µg/mL (≈ 7.21 µM)
MIC (Enterococcus faecium [27]): 4 µg/mL (≈ 7.21 µM)

CC[C@H]1OC(=O)[C@H](C)[C@@H](O[C@H]2C[C@@](C)(OC)[C@@H](O)[C@H](C)O2)[C@H](C)[C@@H](O[C@@H]2O[C@H](C)C[C@H](N(C)C)[C@H]2O)[C@](C)(O)C[C@@H](C)C(=O)[C@H](C)[C@@H](O)[C@]1(C)O [ERYTHROMYCIN]
MIC [6]: 0.063 µg/mL (≈ 0.0858 µM)
ED50 (Streptococcus pneumoniae [7]): > 100 mg/kg
MIC (Streptococcus pyogenes): 0.008 µg/mL (≈ 0.0109 µM)
MIC (Enterococcus faecium [15]): > 128 µg/mL
MIC (Moraxella catarrhalis): 0.032 µg/mL (≈ 0.0436 µM)
MIC (Haemophilus influenzae): 2 µg/mL (≈ 2.73 µM)
ED50 (Staphylococcus aureus [18]): 2.55 mg/kg
ED50 (Staphylococcus aureus [19]): > 100 mg/kg
ED50 (Streptococcus pneumoniae [20]): 1.48 mg/kg
MIC (Staphylococcus aureus [21]): 0.063 µg/mL (≈ 0.0858 µM)
MIC (Staphylococcus aureus [22]): 0.125 µg/mL (≈ 0.17 µM)
MIC (Staphylococcus aureus [23]): > 128 µg/mL
MIC (Staphylococcus aureus [24]): 32 µg/mL (≈ 43.6 µM)
MIC (Streptococcus pneumoniae [25]): 0.016 µg/mL (≈ 0.0218 µM)
MIC (Streptococcus pneumoniae [26]): > 128 µg/mL
MIC (Enterococcus faecalis): 2 µg/mL (≈ 2.73 µM)
MIC (Enterococcus faecium [27]): 1 µg/mL (≈ 1.36 µM)

Source: ChEMBL document CHEMBL1142399, “Water-soluble pleuromutilin derivative with excellent in vitro and in vivo antibacterial activity against gram-positive pathogens” (J Med Chem, 2008)
